The values below are quoted from earlier work in US20070116750A1, “Compositions for disrupting and inhibiting reconstitution of wound biofilm” (priority 2005, published 2007).

The subject of this series is established biofilm. The conditions noted are these: applied at full strength to an established biofilm.

For the molecule `OCl` [sodium hypochlorite], the biofilm killed was 50%.
